According to US7999001B2 (priority 2007, dated 2011):
“Also recorded” adds a separate entry of the source.

Assays:
[1] = tested on: influenza virus (H1N1 A/Texas strain); type: cell-based
[2] = tested on: cowpox virus (CPXV, egfpCPV virus); set-up: species or system mice; conditions: mouse, in vivo
[3] = tested on: Lassa virus (Josiah strain); type: cell-based
EBOV-GFP = test: microbe, parasite or virus in culture; type: cell-based, Ebola Zaire virus
[4] = tested on: EBOV-GFP (recombinant Ebola Zaire virus expressing green fluorescence protein); test: microbe, parasite or virus in culture; type: cell-based; conditions: Zaire ebolavirus, Vero C1008, 48 h, read-out: EBOV % Inhibition (20 μM)
[5] = tested on: Rift Valley Fever Virus (ZH501 strain); type: cell-based
[6] = tested on: MPXV-GFP (recombinant monkeypox virus expressing GFP, Zaire strain); test: microbe, parasite or virus in culture; type: cell-based; conditions: Vero C1008, in Primates, 48 h, read-out: Monkey Pox % Inhibition (20 μM)
GFP-EBOV = type: cell-based, Ebola Zaire virus

Row | Compound | antiviral activity toward influenza virus [1] | inhibition of influenza virus replication [1] | mean time to death [2] | antiviral activity toward LV (Lassa virus) [3] | inhibition of Lassa virus replication [3] | IC50 toward EBOV (in words) (EBOV-GFP) | dose dependent antiviral activity toward EBOV-GFP (EBOV-GFP) | inhibition at 20 µM [4] | antiviral activity toward RVFV [5] | inhibition at 20 µM [6] | IC50 (EBOV-GFP; Zaire ebolavirus, Vero C1008, read-out: IC50 (read from graphs of % of control infection)) | effect of 24 hours pre-treatment of cells versus treatment during and after infection (GFP-EBOV)
1 | Cc1cc(NCCCN(C)C)c2ccc3c(ccc4c(NCCCN(C)C)cc(C)nc43)c2n1 [NSC 306365, N,N′-bis(3-dimethylaminopropyl)-3,9-dimethylquinolino[8,7-h]quinoline-1,7-diamine] | showed antiviral activity | half log; also recorded: inhibit the replication | increase in the mean time to death; also recorded: prolongs the mean time to death | showed antiviral activity; also recorded: dose dependent inhibition | one log; also recorded: inhibit the replication | submicromolar | dose dependent antiviral activity | 99% | showed antiviral activity; also recorded: dose-dependent inhibition; also recorded: dose dependent antiviral activity | 99% |  | 
2 | N=C(N)c1ccc2oc(C=Cc3nc4cc(C(=N)N)ccc4[nH]3)cc2c1 [NSC 369723, 2-(2-(5-(amino(imino)methyl)-1-benzofuran-2-yl)vinyl)-1H-benzimidazole-5-carboximidamide] | not |  |  | not |  |  | dose dependent antiviral activity | 94% | not |  | ~4 µM | more effective than treatment during and after infection
